From PubChem BioAssay AID180 (DTP/NCI, 2004)
“And” between values parts separate entries of the source, which are not always exact repeats. Equal entries are not always repeated.

Tested on: BDF1 mice, Adenocarcinoma 755 s.c., tumor weight T/C
Assay: NCI In Vivo Anticancer Drug Screen. Data for tumor model Adenocarcinoma 755 (subcutaneous) in B6D2F1 (BDF1) mice
Conditions: endpoint: mean tumor weight, higher = larger tumour
How it was run: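 Readout: T/C, i.e. treated-group measurement over vehicle-control measurement. Endpoint is survival or tumor size in tumor-bearing mice given compound.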

[1] = dose: 400.0 mg/kg/injection, schedule: Q01DX011 (ip), vehicle: carboxymethylcellulose (CMC)
[2] = dose: 30.0 mg/kg/injection, schedule: Q01DX011 (ip), vehicle: carboxymethylcellulose (CMC)
[3] = dose: 60.0 mg/kg/injection, schedule: Q01DX011 (ip), vehicle: carboxymethylcellulose (CMC)
[4] = dose: 120.0 mg/kg/injection, schedule: Q01DX011 (ip), vehicle: carboxymethylcellulose (CMC)
[5] = dose: 240.0 mg/kg/injection, schedule: Q01DX011 (ip), vehicle: carboxymethylcellulose (CMC)
[6] = dose: 3.0 mg/kg/injection, schedule: Q01DX011 (ip), vehicle: carboxymethylcellulose (CMC)
[7] = dose: 4.0 mg/kg/injection, schedule: Q01DX011 (ip), vehicle: carboxymethylcellulose (CMC)
[8] = dose: 6.0 mg/kg/injection, schedule: Q01DX011 (ip), vehicle: carboxymethylcellulose (CMC)
[9] = dose: 8.0 mg/kg/injection, schedule: Q01DX011 (ip), vehicle: carboxymethylcellulose (CMC)
[10] = dose: 12.0 mg/kg/injection, schedule: Q01DX011 (ip), vehicle: carboxymethylcellulose (CMC)
[11] = dose: 50.0 mg/kg/injection, schedule: Q01DX011 (ip), vehicle: other
[12] = dose: 25.0 mg/kg/injection, schedule: Q01DX011 (ip), vehicle: methylcellulose (MC)

Compound: CC(C)CCS(=O)(=O)OCCCCOS(=O)(=O)CCC(C)C
- T/C (dose: 75.0 mg/kg/injection, schedule: Q01DX011 (ip), vehicle: methylcellulose (MC)): 67 % of control
- T/C (dose: 100.0 mg/kg/injection, schedule: Q01DX011 (ip), vehicle: methylcellulose (MC)): 34 % of control
- T/C (dose: 150.0 mg/kg/injection, schedule: Q01DX011 (ip), vehicle: methylcellulose (MC)): 89 % of control
- T/C (dose: 200.0 mg/kg/injection, schedule: Q01DX011 (ip), vehicle: methylcellulose (MC)): 5 % of control
- T/C (dose: 300.0 mg/kg/injection, schedule: Q01DX011 (ip), vehicle: methylcellulose (MC)): 60 % of control
- T/C [1]: 56 % of control
- T/C (dose: 400.0 mg/kg/injection, schedule: Q01DX011 (ip), vehicle: methylcellulose (MC)): 20 % of control
- T/C (dose: 600.0 mg/kg/injection, schedule: Q01DX011 (ip), vehicle: carboxymethylcellulose (CMC)): 33 % of control
- T/C (dose: 600.0 mg/kg/injection, schedule: Q01DX011 (ip), vehicle: methylcellulose (MC)): 75 % of control

Compound: Nc1[nH]cnc(=S)c1NC=O
- T/C [2]: 84 % of control
- T/C [3]: 63 % of control
- T/C [4]: 86 % of control
- T/C (dose: 200.0 mg/kg/injection, schedule: Q01DX011 (ip), vehicle: carboxymethylcellulose (CMC)): 101 % of control
- T/C [5]: 26 % of control
- T/C [1]: 29 % of control

Compound: CCSc1ncc(Br)c(Sc2nc(N)nc3nc[nH]c23)n1
- T/C (dose: 0.5 mg/kg/injection, schedule: Q01DX011 (ip), vehicle: carboxymethylcellulose (CMC)): 69 % of control
- T/C (dose: 0.5 mg/kg/injection, schedule: Q01DX011 (ip), vehicle: methylcellulose (MC)): 68 % of control
- T/C (dose: 1.0 mg/kg/injection, schedule: Q01DX011 (ip), vehicle: carboxymethylcellulose (CMC)): 17 % of control and 30 % of control
- T/C (dose: 1.0 mg/kg/injection, schedule: Q01DX011 (ip), vehicle: methylcellulose (MC)): 37 % of control
- T/C (dose: 1.5 mg/kg/injection, schedule: Q01DX011 (ip), vehicle: carboxymethylcellulose (CMC)): 18 % of control
- T/C (dose: 2.0 mg/kg/injection, schedule: Q01DX011 (ip), vehicle: carboxymethylcellulose (CMC)): 57 % of control
- T/C [6]: 3 % of control and 5 % of control and 23 % of control
- T/C [7]: 2 % of control
- T/C [8]: 2 % of control
- T/C [9]: 15 % of control
- T/C [10]: 3 % of control

Compound: CCOP(=O)(O)OCC1OC(n2cnc3c(=S)nc[nH]c32)C(O)C1O (stereo not drawn)
- T/C [6]: 12 % of control
- T/C [8]: 2 % of control
- T/C [10]: 4 % of control

Compound: O=P(Oc1ccccc1)(OP(=O)(Oc1ccccc1)N(CCCl)CCCl)N(CCCl)CCCl (stereo not drawn)
- T/C (dose: 25.0 mg/kg/injection, schedule: Q01DX011 (ip), vehicle: other): 82 % of control
- T/C [11]: 66 % of control

Compound: CC12CCC3C(CCC4CC=CCC43C)C1CCC2=O (stereo not drawn)
- T/C (dose: 62.55 mg/kg/injection, schedule: Q01DX011 (sc), vehicle: steriod suspending solution): 90 % of control
- T/C (dose: 125.0 mg/kg/injection, schedule: Q01DX011 (sc), vehicle: steriod suspending solution): 99 % of control
- T/C (dose: 250.0 mg/kg/injection, schedule: Q01DX011 (sc), vehicle: steriod suspending solution): 60 % of control
- T/C (dose: 500.0 mg/kg/injection, schedule: Q01DX011 (sc), vehicle: steriod suspending solution): 84 % of control

Compound: CCCCn1cnc2c(SCC(=O)O)nc(N)nc21
- T/C [12]: 54 % of control
- T/C (dose: 80.0 mg/kg/injection, schedule: Q01DX011 (ip), vehicle: methylcellulose (MC)): 58 % of control
- T/C (dose: 250.0 mg/kg/injection, schedule: Q01DX011 (ip), vehicle: methylcellulose (MC)): 69 % of control

Compound: O=C1C=C(N2CC2)C(=O)C(N2CC2)=C1N1CC1
- T/C (dose: 0.02 mg/kg/injection, schedule: Q01DX011 (ip), vehicle: saline): 79 % of control
- T/C (dose: 0.05 mg/kg/injection, schedule: Q01DX011 (ip), vehicle: saline): 61 % of control
- T/C (dose: 0.1 mg/kg/injection, schedule: Q01DX011 (ip), vehicle: saline): 19 % of control
- T/C (dose: 3.0 micrograms/kg/injection, schedule: Q01DX011 (ip), vehicle: carboxymethylcellulose (CMC)): 42 % of control
- T/C (dose: 5.0 micrograms/kg/injection, schedule: Q01DX011 (ip), vehicle: carboxymethylcellulose (CMC)): 25 % of control
- T/C (dose: 5.0 micrograms/kg/injection, schedule: Q01DX011 (ip), vehicle: saline): 65 % of control
- T/C (dose: 10.0 micrograms/kg/injection, schedule: Q01DX011 (ip), vehicle: carboxymethylcellulose (CMC)): 39 % of control
- T/C (dose: 10.0 micrograms/kg/injection, schedule: Q01DX011 (ip), vehicle: saline): 54 % of control
- T/C (dose: 20.0 micrograms/kg/injection, schedule: Q01DX011 (ip), vehicle: carboxymethylcellulose (CMC)): 8 % of control
- T/C (dose: 20.0 micrograms/kg/injection, schedule: Q01DX011 (ip), vehicle: saline): 59 % of control
- T/C (dose: 25.0 micrograms/kg/injection, schedule: Q01DX011 (ip), vehicle: carboxymethylcellulose (CMC)): 70 % of control
- T/C (dose: 31.0 micrograms/kg/injection, schedule: Q01DX011 (ip), vehicle: carboxymethylcellulose (CMC)): 100 % of control
- T/C (dose: 40.0 micrograms/kg/injection, schedule: Q01DX011 (ip), vehicle: saline): 33 % of control
- T/C (dose: 62.0 micrograms/kg/injection, schedule: Q01DX011 (ip), vehicle: carboxymethylcellulose (CMC)): 69 % of control
- T/C (dose: 125.0 micrograms/kg/injection, schedule: Q01DX011 (ip), vehicle: carboxymethylcellulose (CMC)): 63 % of control

Compound: C=C1CN(CC)CCO1
- T/C [11]: 73 % of control
- T/C (dose: 100.0 mg/kg/injection, schedule: Q01DX011 (ip), vehicle: other): 72 % of control

Compound: COc1ccc(C[C@H](N)C(=O)NC2C(CO)OC(n3cnc4c(N(C)C)ncnc43)C2O)cc1 (stereo partly drawn)
- T/C (dose: 9.94 mg/kg/injection, schedule: Q01DX011 (ip), vehicle: carboxymethylcellulose (CMC)): 104 % of control
- T/C (dose: 13.25 mg/kg/injection, schedule: Q01DX011 (ip), vehicle: carboxymethylcellulose (CMC)): 119 % of control
- T/C (dose: 17.06 mg/kg/injection, schedule: Q01DX011 (ip), vehicle: carboxymethylcellulose (CMC)): 73 % of control
- T/C (dose: 19.88 mg/kg/injection, schedule: Q01DX011 (ip), vehicle: carboxymethylcellulose (CMC)): 174 % of control
- T/C (dose: 23.0 mg/kg/injection, schedule: Q01DX011 (ip), vehicle: carboxymethylcellulose (CMC)): 67 % of control
- T/C (dose: 26.5 mg/kg/injection, schedule: Q01DX011 (ip), vehicle: carboxymethylcellulose (CMC)): 70 % of control
- T/C (dose: 31.8 mg/kg/injection, schedule: Q01DX011 (ip), vehicle: carboxymethylcellulose (CMC)): 47 % of control and 48 % of control
- T/C (dose: 34.13 mg/kg/injection, schedule: Q01DX011 (ip), vehicle: carboxymethylcellulose (CMC)): 57 % of control
- T/C (dose: 45.0 mg/kg/injection, schedule: Q01DX011 (ip), vehicle: carboxymethylcellulose (CMC)): 70 % of control
- T/C (dose: 68.25 mg/kg/injection, schedule: Q01DX011 (ip), vehicle: carboxymethylcellulose (CMC)): 50 % of control
- T/C (dose: 79.5 mg/kg/injection, schedule: Q01DX011 (ip), vehicle: carboxymethylcellulose (CMC)): 14 % of control
- T/C (dose: 90.0 mg/kg/injection, schedule: Q01DX011 (ip), vehicle: carboxymethylcellulose (CMC)): 51 % of control

Compound: Nc1nc(=S)c2ncn(C3CCCCC3)c2[nH]1
- T/C (dose: 12.5 mg/kg/injection, schedule: Q01DX011 (ip), vehicle: methylcellulose (MC)): 81 % of control
- T/C [12]: 86 % of control
- T/C (dose: 50.0 mg/kg/injection, schedule: Q01DX011 (ip), vehicle: methylcellulose (MC)): 50 % of control

Compound: O=C(Nc1ccc(N=Nc2ccc(O)c(C(=O)O)c2)c(S(=O)(=O)O)c1)c1ccc(C(=O)Nc2ccc(N=Nc3ccc(O)c(C(=O)O)c3)c(S(=O)(=O)O)c2)cc1
- T/C [2]: 82 % of control
- T/C [3]: 64 % of control
- T/C [4]: 70 % of control
- T/C [5]: 42 % of control

Compound: CCCCNc1ncnc2c1cnn2C
- T/C [7]: 96 % of control
- T/C [9]: 84 % of control
- T/C (dose: 16.0 mg/kg/injection, schedule: Q01DX011 (ip), vehicle: carboxymethylcellulose (CMC)): 52 % of control
- T/C (dose: 31.25 mg/kg/injection, schedule: Q01DX011 (ip), vehicle: carboxymethylcellulose (CMC)): 30 % of control
- T/C (dose: 32.0 mg/kg/injection, schedule: Q01DX011 (ip), vehicle: carboxymethylcellulose (CMC)): 20 % of control

Compound: CCN(CC)C(=O)CSc1ncnc2nc[nH]c12
- T/C (dose: 6.0 mg/kg/injection, schedule: Q01DX011 (ip), vehicle: methylcellulose (MC)): 91 % of control
- T/C [12]: 43 % of control
- T/C (dose: 31.25 mg/kg/injection, schedule: Q01DX011 (ip), vehicle: methylcellulose (MC)): 6 % of control
- T/C (dose: 62.5 mg/kg/injection, schedule: Q01DX011 (ip), vehicle: methylcellulose (MC)): 4 % of control
